Laboratory results from US10233182B2, “Substituted spirocyclic inhibitors of autotaxin” (X-Rx, Inc., priority 2014, dated 2019).
Counter-ions that a name gives are not always drawn.

Molecular target: Autotaxin (Homo sapiens (Human), UniProt Q13822)
Assay: Autotaxin LPC Cascade Assay
Type: biochemical
Settings: Autotaxin 5 nM, LPC 100 μM, choline oxidase/HRP/Ampliflu Red fluorescence read-out, 2% DMSO, RT; read-out: IC50 ATX Activity
How it was run: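 Choline liberated from LPC by autotaxin during 1 h, after a 10-min RT compound preincubation, was converted through choline oxidase/HRP to a fluorescent Ampliflu Red product.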

Row | SMILES | IC50
1 | CC(C)[C@@H](NC(=O)c1cc(C(F)(F)F)ccc1F)C(=O)N1CCC2(CC1)C(=O)N(C)C(=O)N2c1ccc(NC2COC2)cc1 [Example 87, (R)-2-Fluoro-N-(3-methyl-1-(3-methyl-1-(4-(oxetan-3-ylamino)phenyl)-2,4-dioxo-1,3,8-triazaspiro[4.5]decan-8-yl)-1-oxobutan-2-yl)-5-(trifluoromethyl)benzamide] | ≥ 1000 nM
2 | CCc1ccc(F)c(C(=O)N[C@@H](C(=O)N2CCC3(CC2)C(=O)N(C)C(=O)N3c2ccc3[nH]c(=O)oc3c2)C(C)C)c1 [Example 31, (R)-5-Ethyl-2-fluoro-N-(3-methyl-1-(3-methyl-2,4-dioxo-1-(2-oxo-2,3-dihydrobenzo[d]oxazol-6-yl)-1,3,8-triazaspiro[4.5]decan-8-yl)-1-oxobutan-2-yl)benzamide] | < 500 nM
3 | CC(C)[C@@H](NC(=O)c1cc(C(F)(F)F)ccc1F)C(=O)N1CCC2(CC1)C(=O)N(C)C(=O)N2c1ccncc1 [Example 239, (R)-2-Fluoro-N-(3-methyl-1-(3-methyl-2,4-dioxo-1-(pyridin-4-yl)-1,3,8-triazaspiro[4.5]decan-8-yl)-1-oxobutan-2-yl)-5-(trifluoromethyl)benzamide] | < 500 nM
4 | CC(C)[C@@H](NC(=O)c1cc(C(F)(F)F)ccc1F)C(=O)N1CCC2(CC1)C(=O)N(C)C(=O)N2c1ccc2[nH]ccc2c1 [Example 185, (R)—N-(1-(1-(1H-Indol-5-yl)-3-methyl-2,4-dioxo-1,3,8-triazaspiro[4.5]decan-8-yl)-3-methyl-1-oxobutan-2-yl)-2-fluoro-5-(trifluoromethyl)benzamide] | < 500 nM
5 | CCc1ccc(F)c(C(=O)N[C@@H](C(=O)N2CCC3(CC2)C(=O)N(C)C(=O)N3c2ccc3[nH]ncc3c2)C(C)C)c1 [Example 55, (R)—N-(1-(1-(1H-Indazol-5-yl)-3-methyl-2,4-dioxo-1,3,8-triazaspiro[4.5]decan-8-yl)-3-methyl-1-oxobutan-2-yl)-5-ethyl-2-fluorobenzamide] | < 500 nM
6 | CC(C)[C@@H](NC(=O)c1cc(C(F)(F)F)ccc1F)C(=O)N1CCC2(CC1)C(=O)N(C)CN2c1ccc(OCCN(C)C)cc1 [Example 171, (R)—N-(1-(1-(4-(2-(Dimethylamino)ethoxy)phenyl)-3-methyl-4-oxo-1,3,8-triazaspiro[4.5]decan-8-yl)-3-methyl-1-oxobutan-2-yl)-2-fluoro-5-(trifluoromethyl)benzamide trifluoroacetic Acid Salt] | < 500 nM
7 | [2H]c1ccc(N2C(=O)N(C)C(=O)C23CCN(C(=O)[C@H](NC(=O)c2cc(C(F)(F)F)ccc2F)C(C)C)CC3)cc1 [Example 190] | < 500 nM
8 | CC(C)[C@@H](NC(=O)c1cc(C(F)(F)F)ccc1F)C(=O)N1CCC2(CC1)C(=O)N(C)C(=O)N2Cc1ccc(S(C)(=O)=O)cc1 [Example 93, (R)-2-Fluoro-N-(3-methyl-1-(3-methyl-1-(4-(methylsulfonyl)benzyl)-2,4-dioxo-1,3,8-triazaspiro[4.5]decan-8-yl)-1-oxobutan-2-yl)-5-(trifluoromethyl)benzamide] | ≥ 1000 nM
9 | CC(C)[C@@H](NC(=O)c1cc(Cl)ccc1F)C(=O)N1CCC2(CC1)C(=O)N(C)C(=O)N2c1ccccc1 [Example 43, (R)-5-Chloro-2-fluoro-N-(3-methyl-1-(3-methyl-2,4-dioxo-1-phenyl-1,3,8-triazaspiro[4.5]decan-8-yl)-1-oxobutan-2-yl)benzamide] | < 500 nM
10 | CC(C)[C@@H](NC(=O)c1cc(C(F)(F)F)ccc1F)C(=O)N1CCC2(CC1)C(=O)N(C)C(=O)N2c1ccc(OC(F)(F)F)cc1 [Example 26, (R)-2-Fluoro-N-(3-methyl-1-(3-methyl-2,4-dioxo-1-(4-(trifluoromethoxy)phenyl)-1,3,8-triazaspiro[4.5]decan-8-yl)-1-oxobutan-2-yl)-5-(trifluoromethyl)benzamide] | < 500 nM
11 | Cc1nc2ccc(CN3C(=O)N(C)C(=O)C34CCN(C(=O)[C@H](NC(=O)c3cc(C(F)(F)F)ccc3F)C(C)C)CC4)cc2o1 [Example 118, (R)-2-Fluoro-N-(3-methyl-1-(3-methyl-1-((2-methylbenzo[d]oxazol-6-yl)methyl)-2,4-dioxo-1,3,8-triazaspiro[4.5]decan-8-yl)-1-oxobutan-2-yl)-5-(trifluoromethyl)benzamide] | < 500 nM
12 | Cc1nc2ccc(CN3C(=O)N(C)C(=O)C34CCN(C(=O)[C@H](NC(=O)c3cc(C(F)(F)F)ccc3F)C(C)C)CC4)cc2[nH]1 [Example 106, (R)-2-Fluoro-N-(3-methyl-1-(3-methyl-1-((2-methyl-1H-benzo[d]imidazol-6-yl)methyl)-2,4-dioxo-1,3,8-triazaspiro[4.5]decan-8-yl)-1-oxobutan-2-yl)-5-(trifluoromethyl)benzamide] | ≥ 1000 nM
13 | Cc1ccc(F)c(C(=O)N[C@@H](C(=O)N2CCC3(CC2)C(=O)N(C)CN3c2ccccc2)C(C)C)c1 [Example 141, (R)-2-Fluoro-5-methyl-N-(3-methyl-1-(3-methyl-4-oxo-1-phenyl-1,3,8-triazaspiro[4.5]decan-8-yl)-1-oxobutan-2-yl)benzamide] | < 500 nM
14 | CC(C)[C@@H](NC(=O)c1cc(C(F)(F)F)ccc1F)C(=O)N1CCC2(CC1)C(=O)N(C)C(=O)N2C1CCCC1 [Example 125, (R)—N-(1-(1-Cyclopentyl-3-methyl-2,4-dioxo-1,3,8-triazaspiro[4.5]decan-8-yl)-3-methyl-1-oxobutan-2-yl)-2-fluoro-5-(trifluoromethyl)benzamide] | < 500 nM
15 | CC(C)[C@@H](NC(=O)c1cc(C(F)(F)F)ccc1F)C(=O)N1CCC2(CC1)C(=O)N(C)C(=O)N2c1cccc(Cl)c1 [Example 187, (R)—N-(1-(1-(3-Chlorophenyl)-3-methyl-2,4-dioxo-1,3,8-triazaspiro[4.5]decan-8-yl)-3-methyl-1-oxobutan-2-yl)-2-fluoro-5-(trifluoromethyl)benzamide] | < 500 nM
16 | COc1ccc(N2C(=O)N(C)C(=O)C23CCN(C(=O)[C@H](NC(=O)c2cc(C4CC4)ccc2F)C(C)C)CC3)cc1 [Example 45, (R)-5-Cyclopropyl-2-fluoro-N-(1-(1-(4-methoxyphenyl)-3-methyl-2,4-dioxo-1,3,8-triazaspiro[4.5]decan-8-yl)-3-methyl-1-oxobutan-2-yl)benzamide] | < 500 nM
17 | CC(C)[C@@H](NC(=O)c1cc(C(F)(F)F)ccc1F)C(=O)N1CCC2(CC1)C(=O)N(C)C(=O)N2c1ccc2oc(=O)n(C)c2c1 [Example 11, (R)-2-Fluoro-N-(3-methyl-1-(3-methyl-1-(3-methyl-2-oxo-2,3-dihydrobenzo[d]oxazol-5-yl)-2,4-dioxo-1,3,8-triazaspiro[4.5]decan-8-yl)-1-oxobutan-2-yl)-5-(trifluoromethyl)benzamide] | ≥ 1000 nM
18 | Cc1cc(F)cc(C(=O)N[C@@H](C(=O)N2CCC3(CC2)C(=O)N(C)CN3c2ccccc2)C(C)C)c1 [Example 140, (R)-3-Fluoro-5-methyl-N-(3-methyl-1-(3-methyl-4-oxo-1-phenyl-1,3,8-triazaspiro[4.5]decan-8-yl)-1-oxobutan-2-yl)benzamide] | < 500 nM
19 | Cc1cccc(C(=O)N[C@@H](C(=O)N2CCC3(CC2)C(=O)N(C)CN3c2ccc(B(O)O)cc2)C(C)C)c1F [Example 147, (R)-4-(8-(2-(2-Fluoro-3-methylbenzamido)-3-methylbutanoyl)-3-methyl-4-oxo-1,3,8-triazaspiro[4.5]decan-1-yl)phenylboronic Acid] | < 500 nM
20 | CCc1cccc(C(=O)N[C@@H](C(=O)N2CCC3(CC2)C(=O)N(C)C(=O)N3c2ccccc2)C(C)C)c1F [Example 34, (R)-3-Ethyl-2-fluoro-N-(3-methyl-1-(3-methyl-2,4-dioxo-1-phenyl-1,3,8-triazaspiro[4.5]decan-8-yl)-1-oxobutan-2-yl)benzamide] | ≥ 1000 nM
21 | CC(C)[C@@H](NC(=O)c1cc(C(F)(F)F)ccc1F)C(=O)N1CCC2(CC1)C(=O)N(C)C(=O)N2c1ccn(C)n1 [Example 16, (R)-2-Fluoro-N-(3-methyl-1-(3-methyl-1-(1-methyl-1H-pyrazol-3-yl)-2,4-dioxo-1,3,8-triazaspiro[4.5]decan-8-yl)-1-oxobutan-2-yl)-5-(trifluoromethyl)benzamide] | ≥ 1000 nM
22 | CC(C)[C@@H](NC(=O)c1cc(C(F)(F)F)ccc1F)C(=O)N1CCC2(CC1)C(=O)N(C)C(=O)N2c1ccc2ocnc2c1 [Example 245, (R)—N-(1-(1-(Benzo[d]oxazol-5-yl)-3-methyl-2,4-dioxo-1,3,8-triazaspiro[4.5]decan-8-yl)-3-methyl-1-oxobutan-2-yl)-2-fluoro-5-(trifluoromethyl)benzamide] | < 500 nM
23 | CC[C@@H](C)[C@@H](NC(=O)c1cc(C)cc(F)c1)C(=O)N1CCC2(CC1)C(=O)N(C)C(=O)N2c1ccc(OC)cc1 [Example 41, 3-Fluoro-N-((2R,3R)-1-(1-(4-methoxyphenyl)-3-methyl-2,4-dioxo-1,3,8-triazaspiro[4.5]decan-8-yl)-3-methyl-1-oxopentan-2-yl)-5-methylbenzamide] | < 500 nM
24 | Cc1cccc(C(=O)N[C@@H](C(=O)N2CCC3(CC2)C(=O)N(C)CN3c2ccc(Br)cc2)C(C)C)c1 [Example 199, (R)—N-(1-(1-(4-Bromophenyl)-3-methyl-4-oxo-1,3,8-triazaspiro[4.5]decan-8-yl)-3-methyl-1-oxobutan-2-yl)-3-methylbenzamide] | < 500 nM
25 | CN1C(=O)N(c2ccc(=O)n(C)c2)C2(CCN(C(=O)[C@H](NC(=O)c3cc(C(F)(F)F)ccc3F)C3CCCC3)CC2)C1=O [Example 24, (R)—N-(1-Cyclopentyl-2-(3-methyl-1-(1-methyl-6-oxo-1,6-dihydropyridin-3-yl)-2,4-dioxo-1,3,8-triazaspiro[4.5]decan-8-yl)-2-oxoethyl)-2-fluoro-5-(trifluoromethyl)benzamide] | < 500 nM
26 | CCc1ccc(F)c(C(=O)N[C@@H](C(=O)N2CCC3(CC2)C(=O)N(CC#N)CN3c2ccccc2)C(C)C)c1 [Example 178, (R)—N-(1-(3-(Cyanomethyl)-4-oxo-1-phenyl-1,3,8-triazaspiro[4.5]decan-8-yl)-3-methyl-1-oxobutan-2-yl)-5-ethyl-2-fluorobenzamide] | < 500 nM
